Residues, ends and D or L forms follow the SMILES beside them.
Test system: Human immunodeficiency virus 1
Assay: Inhibitory activity against interaction between HIV-1 gp120 and CD4
Type: functional

CC(C)C[C@H](NC(=O)[C@H](CC(=O)O)NC(=O)[C@H](Cc1ccccc1)NC(=O)[C@H](CO)NC(=O)[C@@H]1CCCN1C(=O)[C@H](CCC(N)=O)NC(=O)[C@@H](N)CS)C(=O)N[C@@H](CCC(N)=O)C(=O)N[C@@H](CS)C(=O)O (H-CQPSFDLQC-OH)
IC50: 1 µM

H-ARQPSFDLQCGF-OH
IC50: 50 µM

H-PSFDLQ-OH
IC50: 6 µM

Reference: ChEMBL document CHEMBL1134400, “Short peptides with induced beta-turn inhibit the interaction between HIV-1 gp120 and CD4” (J Med Chem, 2001)
